In ChEMBL document CHEMBL1201862, “PubChem BioAssay data set” (2004):
Active and inactive are the calls of the source.

Columns and labels:
[1] = test system: Escherichia coli; assay: microbe, parasite or virus in culture
[2] = test system: Escherichia coli; assay: microbe, parasite or virus in culture; remark: listed apart in the source
[3] = target: T1, Hexokinase HKDC1 (Homo sapiens, UniProt Q2TB90); assay: analog inhibition of human HKDC1 activity – biochemical, set 2, SAR follow-up (AID 588355); type: functional
T1 sequence (Q2TB90 whole entry): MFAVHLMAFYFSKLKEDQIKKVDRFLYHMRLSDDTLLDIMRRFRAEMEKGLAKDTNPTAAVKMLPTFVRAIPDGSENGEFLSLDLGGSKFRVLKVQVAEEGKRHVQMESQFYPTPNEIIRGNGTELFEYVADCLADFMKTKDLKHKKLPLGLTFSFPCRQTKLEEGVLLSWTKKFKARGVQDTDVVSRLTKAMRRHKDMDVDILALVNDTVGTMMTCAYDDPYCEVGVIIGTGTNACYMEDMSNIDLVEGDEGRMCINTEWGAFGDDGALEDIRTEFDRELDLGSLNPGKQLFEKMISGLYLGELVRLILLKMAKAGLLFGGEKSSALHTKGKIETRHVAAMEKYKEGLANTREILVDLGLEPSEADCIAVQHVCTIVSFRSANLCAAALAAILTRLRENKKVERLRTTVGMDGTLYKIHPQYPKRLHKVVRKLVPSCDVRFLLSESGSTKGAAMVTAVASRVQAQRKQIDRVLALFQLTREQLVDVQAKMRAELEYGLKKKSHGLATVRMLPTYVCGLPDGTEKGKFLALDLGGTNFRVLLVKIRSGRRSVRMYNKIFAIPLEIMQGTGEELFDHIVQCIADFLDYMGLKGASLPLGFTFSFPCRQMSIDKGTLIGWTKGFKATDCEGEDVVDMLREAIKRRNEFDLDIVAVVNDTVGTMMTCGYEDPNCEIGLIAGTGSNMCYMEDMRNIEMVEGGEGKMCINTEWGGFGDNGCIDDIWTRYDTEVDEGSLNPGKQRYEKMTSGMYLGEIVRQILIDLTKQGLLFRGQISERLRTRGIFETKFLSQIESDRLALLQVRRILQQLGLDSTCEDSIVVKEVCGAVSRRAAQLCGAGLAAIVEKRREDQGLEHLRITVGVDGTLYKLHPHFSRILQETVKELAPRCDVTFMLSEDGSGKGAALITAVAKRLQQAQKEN

[4] = target: T2, Hexokinase-1 (Homo sapiens, UniProt P19367); assay: hexokinase 1 activity inhibitors, potency – biochemical, set 2, resazurin fluorescence coupled readout, selectivity assay for HKDC1 inhibitor project, SAR follow-up (AID 588356); type: functional
T2 sequence (P19367 whole entry): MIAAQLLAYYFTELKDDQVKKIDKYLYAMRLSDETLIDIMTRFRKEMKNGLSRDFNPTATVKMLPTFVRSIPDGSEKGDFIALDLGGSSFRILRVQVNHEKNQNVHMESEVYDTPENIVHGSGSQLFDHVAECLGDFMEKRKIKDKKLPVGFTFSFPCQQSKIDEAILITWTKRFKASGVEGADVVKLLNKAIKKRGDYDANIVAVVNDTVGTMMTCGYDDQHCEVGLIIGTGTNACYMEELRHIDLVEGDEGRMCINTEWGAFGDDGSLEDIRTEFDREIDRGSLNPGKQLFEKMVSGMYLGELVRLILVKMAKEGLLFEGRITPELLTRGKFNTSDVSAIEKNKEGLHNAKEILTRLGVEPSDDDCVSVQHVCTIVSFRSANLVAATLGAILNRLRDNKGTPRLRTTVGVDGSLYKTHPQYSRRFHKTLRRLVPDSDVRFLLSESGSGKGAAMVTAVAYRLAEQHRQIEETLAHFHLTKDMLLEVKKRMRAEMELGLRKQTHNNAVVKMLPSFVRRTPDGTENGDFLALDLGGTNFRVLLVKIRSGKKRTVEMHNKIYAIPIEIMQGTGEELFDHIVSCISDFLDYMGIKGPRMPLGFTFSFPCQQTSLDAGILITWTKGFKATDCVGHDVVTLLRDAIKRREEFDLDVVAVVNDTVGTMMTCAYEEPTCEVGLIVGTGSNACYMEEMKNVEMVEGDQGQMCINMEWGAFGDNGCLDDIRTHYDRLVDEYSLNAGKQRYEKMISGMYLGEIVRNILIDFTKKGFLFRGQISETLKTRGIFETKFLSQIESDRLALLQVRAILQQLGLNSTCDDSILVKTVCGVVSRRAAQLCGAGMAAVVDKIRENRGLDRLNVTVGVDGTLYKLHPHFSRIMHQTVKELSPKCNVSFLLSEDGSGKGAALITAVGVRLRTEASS

[5] = target: Dual specificity tyrosine-phosphorylation-regulated kinase 1A (Rattus norvegicus, UniProt Q63470); type: biochemical, Homo sapiens

SMILES	IC50 [3]	IC50 [4]	further results
COC(=O)c1c(NC(=O)C(=O)NCCCN2CCOCC2)sc2c1CCCC2			AC50 [1]: 19.8 µM (active)
CC(C)Cc1ccc(CN2CCCC(NC(=O)Cn3cnnn3)C2)cc1 (configuration not stated)			AC50 [2]: 103 µM (active)
Cc1ccccc1N1C(=O)c2ccccc2C1Nc1ccc(F)cc1 (configuration not stated)	> 80 µM (inactive)	> 80 µM (inactive)	
O=c1c2cc(F)ccc2nc(/C=C/c2cccnc2)n1Cc1ccccc1	> 80 µM (inactive)	> 80 µM (inactive)	
COc1ccc(O)c(-c2cc(-c3ccccc3Cl)n[nH]2)c1			AC50 [5]: 2.77 µM (active)
